According to ChEMBL document CHEMBL1133537, “Chiral derivatives of 2-cyclohexylideneperhydro-4,7-methanoindenes, a novel class of nonsteroidal androgen receptor ligand: synthesis, X-ray analysis, and biological activity” (J Med Chem, 2000):

Assays:
Androgen receptor [1] = biological target: T1, Androgen receptor (Rattus norvegicus, UniProt P15207)
T1 sequence (P15207 whole entry): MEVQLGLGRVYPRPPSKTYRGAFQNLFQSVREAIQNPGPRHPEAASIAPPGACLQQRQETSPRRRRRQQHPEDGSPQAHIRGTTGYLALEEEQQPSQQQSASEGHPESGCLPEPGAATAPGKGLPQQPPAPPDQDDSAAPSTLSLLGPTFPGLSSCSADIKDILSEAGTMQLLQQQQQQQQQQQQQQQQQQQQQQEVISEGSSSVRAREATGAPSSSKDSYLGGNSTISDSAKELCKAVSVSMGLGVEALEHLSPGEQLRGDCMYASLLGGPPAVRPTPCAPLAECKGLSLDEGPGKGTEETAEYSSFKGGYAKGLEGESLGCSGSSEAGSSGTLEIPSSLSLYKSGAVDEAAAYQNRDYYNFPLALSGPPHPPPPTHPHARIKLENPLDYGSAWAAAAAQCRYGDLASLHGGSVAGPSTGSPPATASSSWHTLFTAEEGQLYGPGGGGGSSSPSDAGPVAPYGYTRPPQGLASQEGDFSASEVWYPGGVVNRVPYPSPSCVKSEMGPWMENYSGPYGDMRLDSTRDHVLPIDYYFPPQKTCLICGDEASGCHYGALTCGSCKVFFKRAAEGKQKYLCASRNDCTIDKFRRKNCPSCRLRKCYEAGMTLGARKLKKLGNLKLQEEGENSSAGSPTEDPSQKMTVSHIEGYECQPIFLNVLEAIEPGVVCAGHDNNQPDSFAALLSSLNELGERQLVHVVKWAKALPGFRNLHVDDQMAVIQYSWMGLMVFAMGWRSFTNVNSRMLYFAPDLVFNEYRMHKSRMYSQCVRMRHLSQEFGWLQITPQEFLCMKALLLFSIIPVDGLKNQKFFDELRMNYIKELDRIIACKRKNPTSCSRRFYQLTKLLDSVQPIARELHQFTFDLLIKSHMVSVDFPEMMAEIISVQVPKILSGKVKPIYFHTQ
Description: Ability to inhibit binding of [3H]R-1881 to rat ventral prostate cytosolic androgen receptor was measured in a radioligand binding assay.

[2] = Eudismic ratio which is the ratio of potency of eutomer and distomer.
Androgen receptor [3] = biological target: T1, Androgen receptor; experiment: […] binding affinity fot cytosolic androgen receptor

IC50 (Androgen receptor [1]) [µM] | Ratio [2] | SMILES | Ki (Androgen receptor [3]) [µM]
62.5 | – | C=C[C@@]1(O)C[C@H]2C[C@@H]1[C@@H]1CC(=C3CCC(=O)CC3)C[C@H]21 | –
57 | 4.2 | C#C[C@@]1(O)C[C@H]2C[C@@H]1[C@@H]1CC(=C3CCC(=O)CC3)C[C@H]21 | –
– | – | C#C[C@]1(O)CC[C@H]2[C@@H]3CCC4Cc5nn(S(C)(=O)=O)cc5C[C@]4(C)[C@H]3CC[C@@]21C (stereo partly drawn) | 2.2
13.5 | – | C#C[C@]1(O)C[C@@H]2C[C@H]1[C@H]1CC(=C3CCC(=O)CC3)C[C@@H]21 | –
27.4 | – | C[C@@]1(O)C[C@H]2C[C@@H]1[C@@H]1CC(=C3CCC(=O)CC3)C[C@H]21 | –
15.6 | – | O=C1CCC(=C2C[C@H]3[C@H]4C[C@@H]([C@H]3C2)[C@](O)(C(F)(F)F)C4)CC1 | –
41.2 | 2.6 | O=C1CCC(=C2C[C@@H]3[C@@H]4C[C@H]([C@@H]3C2)[C@@](O)(C(F)(F)F)C4)CC1 | –
33 | 2.3 | O=C1CCC(=C2C[C@@H]3[C@H]4CC(=O)[C@H](C4)[C@@H]3C2)CC1 | –
14.2 | – | O=C1CCC(=C2C[C@H]3[C@@H]4CC(=O)[C@@H](C4)[C@H]3C2)CC1 | –

SMILES | IC50 (Androgen receptor [1]) [µM] | Ratio [2] | Ki (Androgen receptor [3]) [µM]
O=C1CCC(=C2C[C@H]3[C@@H](C2)[C@H]2C[C@@H]3[C@H](O)C2)CC1 | 10.4 | – | –
O=C1CCC(=C2C[C@@H]3[C@H](C2)[C@@H]2C[C@H]3[C@@H](O)C2)CC1 | 3.9 | 2.7 | –
O=C1CCC(=C2C[C@@H]3[C@H](C2)[C@@H]2C[C@H]3[C@H](O)C2)CC1 | 35.9 | 15.5 | 0.45
